Values quoted from earlier work in patent publication US20070259820A1, “METHODS AND REAGENTS FOR ACTIVATING HEAT SHOCK PROTEIN 70” (THE REGENTS OF THE UNIVERSITY OF MICHIGAN, priority 2006, published 2007).

Tests used:
Hsp70 [1] = details: prior-art statement in background
Hsp70 [2] = details: prior-art statement in background; remark: listed apart in the source

binding to Hsp70 in "pull-down" studies (Hsp70 [1])	effect on Hsp70's ATPase activity (Hsp70 [2])	Compound
bind Hsp70	–	NCCCNCCCCNC(=O)[C@H](O)NC(=O)C[C@@H](O)CCCCN=C(N)N [spergaulin]
–	stimulate Hsp70's ATPase activity	N=C(N)NCCCCCCC(=O)NC(O)C(=O)NCCCCNCCCN (centres unmarked) [15-deoxyspergualin]
